Results taken from paper PMC9686213, “Peptide Carbocycles: From −SS– to −CC– via a Late-Stage “Snip-and-Stitch”” (ACS Central Science, 2022).
Where two headings read alike, the source gives them in different places.

Legend:
[1] = ethylene glycol/heptane, cited from earlier work
[2] = Partition coefficient Peh in ethylene glycol/heptane (permeability, log Peh); assay type: physicochemical; conditions: UPLC peak area at 280 nm
Text: (§1) We next examined the effect of our linkers on the biopharmaceutical properties of setmelanotide. The capacity of setmelanotide (SMT) to regulate appetite depends on its ability to penetrate the blood–brain barrier and to activate melanocortin-4 (MC4) receptors in the brain.[79],[80] […] To assess cell permeability, we measured the partition coefficient Peh of our carbocyclic peptides in a mixture of ethylene glycol and heptane.[81]−[84] […] Thus, log Peh values are a good approximation of in vivo permeabilities. […] Finally, we determined the stability of our carbocyclic peptides to aqueous hydrolysis and to reductive cleavage by glutathione (GSH), an approximate measure of their plasma stability.[85] GSH in the cytoplasm can reduce disulfide bonds to dicysteine peptides and can also cleave disulfide bonds through a disulfide exchange reaction.[18]−[21] […] All measurements were compared to setmelanotide (SMT).
(§2) (1 picture or pasted object on this page, not shown here)

[3] = Stability to reductive cleavage / disulfide exchange by glutathione (GSH); assay type: in vitro ADME; conditions: pH 7.4, 37 °C
Text: We next examined the effect of our linkers on the biopharmaceutical properties of setmelanotide. The capacity of setmelanotide (SMT) to regulate appetite depends on its ability to penetrate the blood–brain barrier and to activate melanocortin-4 (MC4) receptors in the brain.[79],[80] Replacing the −SS– bond of SMT with more lipophilic −CC– linkages could improve the CNS permeability of SMT and could also enhance its proteolytic stability. […] For aqueous solubility, we measured solvation in deionized water (pH 6 at 25 °C). […] To assess cell permeability, we measured the partition coefficient Peh of our carbocyclic peptides in a mixture of ethylene glycol and heptane.[81]−[84] […] Thus, log Peh values are a good approximation of in vivo permeabilities. […]. Thus, many of our carbocyclic analogs should have improved (up to 2.6-fold) blood–brain penetrance in vivo. Finally, we determined the stability of our carbocyclic peptides to aqueous hydrolysis and to reductive cleavage by glutathione (GSH), an approximate measure of their plasma stability.[85] GSH in the cytoplasm can reduce disulfide bonds to dicysteine peptides and can also cleave disulfide bonds through a disulfide exchange reaction.[18]−[21] […] The products were analyzed by LC-MS. […]

[4] = Hydrolytic stability at pH 8.5, 50 °C, LC-MS analysis; assay type: physicochemical; conditions: 16 h
Text: as §1, §2

[5] = common small molecule CNS drugs

Molecule: Cc1cc(=O)n(-c2ccccc2)n1C [antipyrine]
- log Peh [1, 5]: −2.28

Molecule: NC(=O)c1ccccc1 [benzamide]
- log Peh ([1]; reference solutes quoted 'for reference'): −3.69

Molecule: Clc1cccc(Cl)c1N=C1NCCN1 [clonidine]
- log Peh [1, 5]: −1.80

Molecule: c1cc(CN2CCCCC2)cc(OCCCNc2nc3ccccc3s2)c1 [zolantidine]
- log Peh [1, 5]: −1.47

Molecule: setmelanotide [SMT]
- log Peh [2]: −1.16
- mixed disulfide formed (disulfide exchange) ([3]; 1 equiv. GSH, after 24 h): 2%
- mixed disulfide formed (disulfide exchange) ([3]; 10 equiv. GSH): 17%
- hydrolysis outcome (in words) [4]: loss of a single sulfur atom
